From patent US4376785A, “Cyclopropanecarboxylates and a low fish toxic insecticide and/or acaricide containing them” (priority 1980, dated 1983)
Like-named read-outs stand apart in the source and are kept apart here.

Experiments:
[1] = Toxicity to killifish (TLm48), Test example 1; type: in vivo, Oryzias latipes; details: for selectivity ratio: in vivo, TLm48 divided by concentration in water at green rice leafhopper LC50, read-out: Safety coefficient to fishes (a)/(b); for LC50 at 48 h: water, killifish, medium tolerance limit, read-out: Toxicity to fishes TLm48 (a)
Procedure: (§1) Toxicity to killifish (Oryzias latipes) was tested accordig to the test method for toxicity to fishes described in Notification B No. 2735 of the Ministry of Agriculture and Forestry (Nov. 25, 1965). Namely, each of the present compounds (1), (2), (4), (5), (6), (8), (9), (11) and reference compounds was dissolved or suspended in "Tween 80" and diluted successively with dechlorinated tap water. Ten killifish (0.2-0.3 g per fish) were released in a 10-liter glass vessel containing 5 liters of each preparation.
(§2) In order to make it clearer that the present compounds have a low toxicity to fishes as well as a high insecticidal activity, a safety coefficient to fishes was calculated from the test results of toxicity to fishes and insecticidal activity. [formula]
(§3) A detailed explanation will be given to a method of how to calculate the safety coefficient. In the case of green rice leafhoppers, calculation was based on the concentration of active ingredient in water obtained by applying a test solution containing the active ingredient in an amount corresponding to LC50 (ppm) to a flooded paddy field 5 cm deep at a rate of 100 liter/10 are, provided that all the active ingredient applied entered the water.
(§4) For example, the safety coefficient to fishes of the present compound (1) is calculated as follows: The quantity of water in a flooded paddy field 5 cm deep and 10 are in area is 50 tons; when a test solution containing the active ingredient in an amount corresponding to LC50 (ppm) is added to the paddy field at a rate of 100 liter/10 are the concentration of the active ingredient in water (hereinafter referred to as (b)) is 0.008 pp; as the toxicity to fishes [TLm48 (ppm)] (hereinafter referred to as (a)) is >2.0 ppm, said coefficient can be calculated by dividing (a) by (b). In this case, the coefficient is >250, which means that the present compound (1) has a safety higher than 250-fold.

[2] = system: killifish (Oryzias latipes); test: Toxicity to killifish (TLm48), Test example 1; type: in vivo; details: killifish, medium tolerance limit, 48 hours
Procedure: as §1, §2, §3, §4

[3] = system: green rice leafhopper (Nephotettix cincticeps), R-strain; test: Insecticidal activity against green rice leafhopper, sprayed rice plants, Test example 1; type: in vivo; details: green rice leafhopper female adults, spray on rice plant, 26° C., 24 hours
Procedure: The emulsifiable concentrates of the present compounds and reference compounds prepared in Preparation example 1 were each formulated into test solutions having four different concentrations of active ingredient between 500 ppm and 0.5 ppm. Each test solution was sprayed on a rice plant in a 180-ml plastic cup which had elapsed one month after sowing, at a rate of 15 ml/2 cups by means of a turn table. After air-drying, the rice plate was covered with a wire-screen cage, and 15 female adults of green rice leafhopper (Nephotettix cincticeps) (a strain resistant to carbamates and organo-phosphates, hereinafter referred to as R-strain) were liberated therein. The plant was placed in an artificial climate chamber kept at 26° C. After 24 hours, the dead and alive were examined. The median lethal concentratin [LC50 (ppm)] was calculated from the mortality determined by 3 replications. […]

[4] = system: green rice leafhopper (Nephotettix cincticeps); test: Simulated paddy field box test, green rice leafhopper, Test example 6; type: in vivo; details: wettable powder, 100 ppm, 100 liter/10 are, after 48 hours
Procedure: (§5) The wettable powder of each of the present compounds (1), (3), (5), (6) and (11) prepared in Preparation example 4 was diluted with water so that the concentration of active ingredient was 100 ppm. Soil was placed in a plastic box [5 m×5 m×2 m (deep)] to a level of 50 cm from the bottom, and rice plants about 50 cm high were transplanted at invervals of 50 cm. Water was then placed in the box so that water depth was 5 cm, and 20 killifishes (Oryzias latipes) were liberated therein. Thereafter, the above dilute solution was sprayed on the box at a rate of 100 liter/10 are. The solution fell on the rice plants as well as on the water surface.
(§6) One hour after treatment, 100 female adults of green rice leafhopper (Nephotettix cincticeps) were liberated in the box which was immediately covered with a net.

[5] = system: killifishes (Oryzias latipes); test: Simulated paddy field box test, killifish survival, Test example 6; type: in vivo; details: wettable powder, 100 ppm, 100 liter/10 are, water depth 5 cm, after 48 hours
Procedure: as §5, §6

[6] = system: yellow fever mosquito (Aedes aegypti); type: in vivo; details: 50 mg of granules (Preparation example 6) in 100 ml water, full grown larvae, after 24 hours
Procedure: Fifty milligrams of each of the granules of the present compounds (5) and (11) obtained in Preparation example 6 was placed in a 100-ml beaker containing 100 ml of distilled water, and 30 full grown larvae of yellow fever mosquito (Aedes aegypti) were liberated therein. After 24 hours, 100% of the larvae could be killed.

[7] = system: carmine mites (Tetranychus cinnabarinus); test: Damage to rice plants by carmine mites, Test example 4; type: in vivo; details: 500 ppm spray, after 10 days
Procedure: The emulsifiable concentrate of each of the present compounds (3), (5), (9) and (11) prepared in Preparation example 1 was diluted with water so that the concentration of the active ingredient was 500 ppm. The dilute liquor was thoroughly sprayed on rice plants (grown in a 1/10,000 are Waner's pot) on which carmine mites (Tetranychus cinnabarinus) in all stages were made parasitic.

[8] = system: green rice leafhopper (Nephotettix cincticeps); test: Residual effect test, Text example 5; type: in vivo; details: 20 cc per pot, 24 hours
Procedure: The emulsifiable concentrate of each of the present compounds (5) and (11) prepared in Preparation example 1 was diluted with water so that the conentration of active ingredient was 400 ppm. Thereafter, 20 cc of the dilute solution was sprayed on rice plants grown in a 1/10,000 are Wagner's pot. The rice plants were air-dried and covered with a wire-screen cage, and 15 female adults of green rice leafhopper (Nephotettix cincticeps) were liberated therein. After 24 hours, the dead and alive were examined to obtain mortality. In order to examine the residual effect, the pot was then left as it was for 7 days, and the test insects were liberated in the same manner as above. After 24 hours, the mortality was examined. The experiment was carried out in a greenhouse and the number of replications was three.

[9] = system: housefly (Musca domestica); test: Housefly mortality, treated filter paper with bait, Test example 7; type: in vivo; details: 0.7 ml on filter paper, housefly female adults, 48 hours
Procedure: The emulsifiable concentrate obtained in preparation Example 1 was diluted 200 times with water (corresponding to 500 ppm of the active ingredient). On the bottom a polyethylene cup of 5.5 cm in diameter was placed a piece of filter paper of the same size, and 0.7 ml of the above dilute liquor was dropped on the filter paper. Sucrose (30 mg) was placed on the paper as bait. Thereafter, 10 housefly female adults (Musca domestica) were liberated in the cup which was then covered with a lid. After 48 hours, the dead and alive were counted to obtain mortality (4 replications).

[10] = system: CSMA strain housefly (Musca domestica); test: Topical application to housefly adults, Test example 8; type: in vivo; details: topical to ventral thorax, 0.5 μl/adult, female adults, 24 hours
Procedure: The present compounds as below and reference compounds were each diluted with acetone into test solutions having four different concentrations of active ingredient. Each test solution was topically applied to the ventral throrax of CSMA strain housefly female adults (Musca domestica), at a rate of 0.5 μl/adult by means of a microapplicator.
The adults were then liberated in a polyethylene cup and fed with milk, sugar and water. After 24 hours, the dead and alive were observed. The median lethal dosage (LD50 μg/adult) was obtained from the morality (3 replications).

CC1(C)[C@H](C(=O)OC(C#N)c2ccc(F)c(Oc3ccc(Br)cc3)c2)[C@H]1C(Br)C(Cl)(Cl)Br (relative stereo) [compound (1), 3-(4-Bromophenoxy)-4-fluoro-α-cyanobenzyl dl-trans-2,2-dimethyl-3-(1,2-dibromo-2,2-dichloroethyl)cyclopropanecarboxylate]
selectivity ratio [1]: > 250
LC50 at 48 h [1]: > 2 µg/mL
Toxicity to fishes TLm48 (a) [2]: > 2.0 ppm
LC50 [3]: 3.8 ppm
green rice leafhoppers alive [4]: no alive green rice leafhoppers were found
killifishes alive [5]: all of the killifishes were alive

CC1(C)C(C(=O)OC(C#N)c2ccc(F)c(Oc3ccc(Cl)cc3)c2)C1C(Br)C(Cl)(Cl)Br (stereo not drawn) [compound (5), 3-(4-Chlorophenoxy)-4-fluoro-α-cyanobenzyl 2,2-dimethyl-3-(1,2-dibromo-2,2-dichloroethyl)cyclopropanecarboxylate]
selectivity ratio [1]: > 100
LC50 at 48 h [1]: > 1 µg/mL
LC50 [3]: 4.8 ppm
larvae killed [6]: 100%
damage to rice plants by carmine mites [7]: the spreading of the damage could be prevented
mortality at 400 ppm ([8]; insects liberated 7 days after treatment, read-out: Mortality, effect 7 days after treatment): 100%
mortality at 400 ppm ([8]; read-out: Mortality, effect immediately after treatment): 100%
green rice leafhoppers alive [4]: no alive green rice leafhoppers were found
killifishes alive [5]: all of the killifishes were alive
mortality at 500 ppm [9]: 100%
LD50 [10]: 0.033 μg/adult
